Experimental data reported in patent US20050100983A1, “Cell-free methods for identifying compounds that affect toll-like receptor 9 (TLR9) signaling” (Coley Pharmaceutical GmbH, priority 2003, published 2005).

Key:
mTLR9ect = molecular target: T1, mTLR9ect (Mus musculus, UniProt Q9EQU3); experiment: UV-crosslinking of mTLR9ect with 32P-labeled DNA and SDS-PAGE; type: binding, murine; settings: SDS-PAGE, complex at 150 kDa
T1 construct: mTLR9ect (aa 1-816); made in house
T1 sequence (Q9EQU3 26-816): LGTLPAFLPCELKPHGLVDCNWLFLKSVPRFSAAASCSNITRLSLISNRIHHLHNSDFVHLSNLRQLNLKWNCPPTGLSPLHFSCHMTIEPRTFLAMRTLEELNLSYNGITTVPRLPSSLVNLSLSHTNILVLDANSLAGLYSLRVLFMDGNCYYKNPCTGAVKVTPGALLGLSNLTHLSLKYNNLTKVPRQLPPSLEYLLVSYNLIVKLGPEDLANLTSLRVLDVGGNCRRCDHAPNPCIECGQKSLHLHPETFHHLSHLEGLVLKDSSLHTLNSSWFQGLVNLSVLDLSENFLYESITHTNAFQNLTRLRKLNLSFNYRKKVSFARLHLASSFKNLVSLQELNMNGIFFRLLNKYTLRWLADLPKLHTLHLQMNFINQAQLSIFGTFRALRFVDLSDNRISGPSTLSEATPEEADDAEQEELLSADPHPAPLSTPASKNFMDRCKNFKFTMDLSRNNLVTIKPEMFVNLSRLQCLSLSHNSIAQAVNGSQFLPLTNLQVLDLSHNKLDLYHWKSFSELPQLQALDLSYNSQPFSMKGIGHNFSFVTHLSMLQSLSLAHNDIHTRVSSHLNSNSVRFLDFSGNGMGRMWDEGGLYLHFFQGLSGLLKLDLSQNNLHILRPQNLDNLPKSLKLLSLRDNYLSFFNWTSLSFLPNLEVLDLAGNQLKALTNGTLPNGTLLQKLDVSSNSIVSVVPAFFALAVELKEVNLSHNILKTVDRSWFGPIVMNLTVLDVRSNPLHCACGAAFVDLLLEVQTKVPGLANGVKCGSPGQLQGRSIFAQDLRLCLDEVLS
Description: FIG. 1B is an image of an SDS-PAGE gel depicting purified proteins from FIG. 1A UV-crosslinked with ^32P-labeled CpG- or non-CpG-DNA, separated by SDS-PAGE, and autoradiographed. TLR9 and free DNA are highlighted.
Bauer S et al. (2001) Proc. Natl. Acad. Sci. U.S.A. 98:9237-9242. To assess binding of TLR9 to CpG-DNA, a recombinant fusion protein consisting of the extracellular domain of murine TLR9 and human IgG 1-Fc (mTLR9ect) was constructed. The extracellular domain of murine TLR2 also fused to IgG1-Fc (mTLR2ect) served as control. Proteins were expressed in HEK 293 cells and purified via protein A affinity chromatography (FIG. 1A). Under denaturing and non-reducing conditions mTLR9ect and mTLR2ect are approximately 10% in a monomeric and 90% in a dimeric form. Dimerization of the proteins is probably mediated by the IgG 1-Fc fusion partner which forms disulfide bonds (FIG. 1A). Initially, binding of mTLR9ect to radiolabeled DNA was determined by UV-crosslinking and subsequent SDS-PAGE.

[1] = system: mTLR9mut (D535→A and Y537→A); experiment: NF-κB luciferase assay, HEK 293 cells transfected with mutated full length mTLR9; type: cell-based, murine; settings: 1 μM CpG-DNA
Procedure: FIG. 3D is a bar graph depicting activation of mTLR9- and mTLR9mut-transfected cells from FIG. 3C. Cells were stimulated with 1 μM CpG-DNA or 10 ng/ml of the TLR-independent stimulus 12-O-tetradecanoylphorbol 13-acetate (TPA) and subsequent NF-κB induction was analyzed. Activation is expressed as fold induction compared to no stimulation.
Mutation. For mutation of wild-type mTLR9 amino acids D535 and Y537 to two alanines, the primers 5′-[…]-3′ (SEQ ID NO:5) and 5′-[…]-3′ (SEQ ID NO:6) were used to generate mTLR9-mut. A site-specific-mutagenesis kit from Stratagene (Amsterdam, Netherlands) was applied according to the manufacturer's protocol. All PCR fragments were sequenced and found error-free.
NF-κB luciferase assay. For monitoring transient NF-κB activation, 3×10^6 HEK 293 cells were electroporated at 200 volt and 950 μF with 20 ng of a NF-κB luciferase reporter plasmid (kindly provided by Patrick Baeuerle, Munich, Germany) and 1 μg mTLR2 (kindly provided by Tularik, Inc., South San Francisco, USA), mTLR9, or mTLR9-mut expression plasmid. Cells were seeded at 10^5 cells per well and after overnight culture stimulated with 1 μM phosphorothioated CpG-DNA 1668 (SEQ ID NO:1), 1 μM non-CpG-DNA 1668GC (SEQ ID NO:3), 1 μg/ml Pam3CysK4 or 1 μg/ml PHCK4 for further 8 hours. […]

[2] = molecular target: T2, mTLR9ect (extracellular domain of murine TLR9 fused to human IgG1-Fc) (Mus musculus, UniProt Q9EQU3); experiment: SPR biosensor analysis of mTLR9ect binding to immobilized CpG-DNA; settings: pH 7.4
T2 construct: mTLR9ect (aa 1-816); made in house
T2 sequence (Q9EQU3 26-816): T1 sequence (Q9EQU3 26-816)

murine TLR9 = settings: read-out: concentration for half-maximal activation of murine TLR9; cited from earlier work

5′-TCCATGACGTTCCTGATGCT-3′ (chemistry not given here) [CpG-DNA 1668, synthetic CpG oligodeoxynucleotide, TLR9 ligand]
binding of mTLR9ect to radiolabeled DNA (mTLR9ect): bound | response of cells with mutated full length mTLR9 to CpG-DNA (NF-κB induction) [1]: did not respond | TLR9 binding to CpG-DNA [2]: weak | dissociation of TLR9 from CpG-DNA [2]: fairly rapidly | EC50 (murine TLR9): 70 nM
